Like-named read-outs stand apart in the source and are kept apart here.
Columns and labels:
[1] = test system: SK-MEL-28 melanoma cell line; assay: MTT cell proliferation assay in melanoma cells; type: cell-based, human; conditions: SK-MEL-28, after 6 days of treatment, read-out: Half-maximal inhibitory concentration (IC50)
Text: Antifolate compounds are designed to inhibit DHFR and act specifically during DNA and RNA synthesis, making them more toxic to rapidly dividing cells. Recent evidences indicate that tea-catechins and derived compounds could inhibit DHFR and block the folate cycle in cancer cells. Although inhibition of DHFR by these compounds could be a plausible explanation for their antifolate activity, the possibility of these compounds targeting (folate)-enzymes other than DHFR could not be excluded. To determine whether these newly synthetized compounds disrupt the folate cycle in cell culture, we studied their antiproliferative activity in the melanoma cell line SK-MEL-28 (Table 3). Concentration- and time-dependent effects were analyzed using the colorimetric 4,5-(3)-dimethylthiazol-2-yl)-2,5-diphenyltetrazolium bromide (MTT) method.
The human melanoma cell line SK-MEL-28 was obtained from American Type Culture Collection (ATCC, Manassas, VA, USA) and was maintained in Eagles’s Minimum Essential Medium (EMEM) supplemented with 10% (v/v) FBS and antibiotics at 37 °C in a humidified atmosphere containing 7.5% CO2. Cell viability was evaluated using the MTT cell proliferation assay. Cells were evaluated for apoptosis using a cell death detection ELISA (Cell Death Detection ELISAPLUS, Roche Diagnostics, Barcelona, Spain). The principle of this test is the detection of mono- and oligonucleosomes in the cytoplasmic fractions of cell lysates using biotinylated anti-histone and peroxidase-coupled anti-DNA antibodies. The amount of nucleosomes is photometrically quantified at 405 nm by the peroxidase activity retained in the immunocomplexes. Apoptosis was defined as the specific enrichment of mono- and oligonucleosomes in the cytoplasm and was calculated by dividing the absorbance of treated samples with the absorbance of untreated samples after correcting for the number of cells. The induction of apoptosis in each melanoma cell line after a 7 h treatment with 2 μM staurosporin (100% apoptotic cells) was used to calculate the number of apoptotic cells. For these assays, cells were plated in a 96-well plate at a density of 1000–2000 cells/well. Compounds were added once at the beginning of the experiments.

[2] = biological target: T1, free recombinant human DHFR (rHDHFR) (Homo sapiens, UniProt P00374); assay: Binding of polyphenols to free rHDHFR by fluorescence quenching titration
T1 construct: made in house; host or cells: Bombyx mori chrysalides
T1 sequence (P00374 1-187): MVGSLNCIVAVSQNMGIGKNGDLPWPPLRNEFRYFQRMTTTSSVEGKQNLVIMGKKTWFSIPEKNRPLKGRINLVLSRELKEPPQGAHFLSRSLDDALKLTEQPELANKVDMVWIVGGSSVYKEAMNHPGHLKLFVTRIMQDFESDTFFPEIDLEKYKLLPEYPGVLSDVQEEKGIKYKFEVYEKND
Protocol: Natural and synthetic derivatives of tea catechins have shown to be good inhibitors of human DHFR [7, 11, 16, 18]. To determine the ability of natural and synthetic polyphenols to bind DHFR, we performed a structure-activity study by analyzing the binding of these polyphenols to DHFR using fluorescence quenching. Effective binding to free recombinant human DHFR (rHDHFR) was determined by measuring the decrease in enzyme fluorescence that occurs upon the formation of the enzyme-inhibitor complex. […] The dissociation constants of the synthetic compounds were on the same order as those of the natural analogues, indicating the high DHFR binding capacities of these new derivatives.
The dissociation constants for the binding of polyphenols to free recombinant human DHFR (rHDHFR) were determined by fluorescence titration in an automatic-scanning FluoroMax-3 (Jobin Ybon, Horiba, Edison, NJ, USA) spectrofluorometer with 1.0 cm light path cells and a 150 W mercury-xenon light source. The formation of a binary complex between the enzyme (2.5 × 10^−7 M) and the ligand (from 0 to 40 µM) was followed by measuring the quenching of the tryptophan fluorescence of the enzyme upon the addition of microliter volumes of a concentrated stock solution of ligand. Experiments were performed at pH 7.5 in a buffer containing 2-(N-morpholino)ethanesulfonic acid (Mes, 0.025 M), sodium acetate (0.025 M), tris(hydroxymethyl)aminomethane (Tris 0.05 M), and NaCl (0.1 M). The temperature was controlled at 25 °C using a Haake D1G circulating bath with a heater and cooler. Fluorescence emission spectra were recorded when the human DHFR fluorescence was excited at 290 nm, and titrations were performed as described elsewhere.

[3] = biological target: T2, human serum albumin (HSA) (Homo sapiens, UniProt P02768); assay: HSA binding by fluorescence quenching
T2 construct: purchased Sigma-Aldrich
T2 sequence (P02768 25-609): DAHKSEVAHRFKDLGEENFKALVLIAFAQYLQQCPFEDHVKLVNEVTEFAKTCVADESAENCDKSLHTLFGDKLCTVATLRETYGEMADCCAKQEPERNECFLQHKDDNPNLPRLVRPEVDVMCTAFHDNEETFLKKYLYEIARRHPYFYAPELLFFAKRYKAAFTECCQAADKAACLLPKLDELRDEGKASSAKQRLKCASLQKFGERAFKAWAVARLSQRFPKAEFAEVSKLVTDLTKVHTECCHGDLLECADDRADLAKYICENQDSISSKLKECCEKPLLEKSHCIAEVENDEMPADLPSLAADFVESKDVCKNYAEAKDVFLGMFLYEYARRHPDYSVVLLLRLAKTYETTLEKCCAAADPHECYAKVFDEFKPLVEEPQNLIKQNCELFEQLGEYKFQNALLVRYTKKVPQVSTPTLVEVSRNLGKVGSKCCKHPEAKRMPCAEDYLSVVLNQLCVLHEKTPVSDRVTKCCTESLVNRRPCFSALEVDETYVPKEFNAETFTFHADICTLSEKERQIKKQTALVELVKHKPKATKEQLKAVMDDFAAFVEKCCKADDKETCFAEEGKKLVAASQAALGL
Protocol: Fluorescence measurements were made on an automatic scanning Perkin-Elmer LS50B spectrofluorometer with 1.0 cm light path cells equipped with a 150 W xenon (XBO) light source. […] A plot of log (F0-F)/F against log [Q] was used to determine the values of KA and n from the intercept and the slope, respectively. Binding of TMECG, EGCG, and EC to HSA was determined as specified for the BSA binding studies.

[4] = biological target: T3, bovine serum albumin (BSA) (Bos taurus, UniProt P02769); assay: BSA binding by fluorescence quenching
T3 construct: purchased Sigma-Aldrich
T3 sequence (P02769 25-607): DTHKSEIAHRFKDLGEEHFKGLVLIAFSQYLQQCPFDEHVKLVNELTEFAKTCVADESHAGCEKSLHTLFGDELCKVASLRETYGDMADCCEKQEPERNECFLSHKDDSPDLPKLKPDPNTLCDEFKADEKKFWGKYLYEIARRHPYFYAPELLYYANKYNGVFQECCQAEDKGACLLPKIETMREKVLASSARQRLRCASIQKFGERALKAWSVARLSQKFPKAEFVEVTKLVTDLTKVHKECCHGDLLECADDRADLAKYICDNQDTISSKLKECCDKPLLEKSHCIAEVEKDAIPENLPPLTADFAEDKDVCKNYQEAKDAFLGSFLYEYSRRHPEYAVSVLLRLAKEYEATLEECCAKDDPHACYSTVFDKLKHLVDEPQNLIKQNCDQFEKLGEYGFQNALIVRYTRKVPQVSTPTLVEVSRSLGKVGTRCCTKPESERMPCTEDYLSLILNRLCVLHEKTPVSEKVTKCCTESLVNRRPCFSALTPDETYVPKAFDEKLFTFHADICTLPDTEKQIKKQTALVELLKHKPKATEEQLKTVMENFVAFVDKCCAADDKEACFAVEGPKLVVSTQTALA
Text: Upon progressive additions of various concentrations of EGCG and TMCG to BSA, the emission intensity decreases, as shown in Figure 4(a). The quenching of the fluorescence intensity of BSA implies that the catechins bind at close proximity to the tryptophan and tyrosine residues and that the molecular arrangement of BSA is affected by the interactions. […] The binding constants (KA) for the BSA-EGCG and BSA-TMCG complexes are 1.54 × 10^7 M^−1 and 1.9 × 10^5 M^−1, respectively (Table 4), and their plots are shown in Figure 4(b). […] In light of these findings, it can be reasoned that the binding affinity to BSA is higher for the galloylated catechin than for the methylated one, which emphasises that the three phenolic groups can enhance hydrogen bonding between BSA and EGCG [25].
Fluorescence measurements were made on an automatic scanning Perkin-Elmer LS50B spectrofluorometer with 1.0 cm light path cells equipped with a 150 W xenon (XBO) light source. In all experiments, the fluorescence of BSA (5 × 10^−6 M) in 50 mM phosphate buffer of pH 7.5 was followed by excitation at 280 nm. The binding affinities of EGCG and TMCG with BSA in terms of binding constants were determined using the following equation [25]: log (F0−F)/F = log KA + n log [Q](1) where KA is the binding constant, n is the number of binding sites, F0 is the fluorescence intensity of free BSA and F is the consequent fluorescence upon the addition of catechins (Q). A plot of log (F0-F)/F against log [Q] was used to determine the values of KA and n from the intercept and the slope, respectively.

[5] = biological target: T3, bovine serum albumin (BSA); assay: Competitive site-marker (warfarin, ibuprofen) binding to BSA; conditions: for Kd: Binding constant (KA), BSA, 25 °C
Protocol: Next, the site selective binding of both EGCG and TMCG to BSA was analyzed. The capability of serum albumins to bind to aromatic and heterocyclic compounds is largely dependent on the existence of two major binding regions, namely site-I and site-II [25]. Warfarin and ibuprofen are fluorescence probes whose primary binding sites to BSA are site-I and site-II, respectively.
To identify the binding sites of EGCG and TMCG in BSA, the displacements of warfarin and ibuprofen (known to bind at site I and site II, respectively) were followed fluorometrically. Equimolar solutions of BSA and warfarin (5 × 10^−6 M each) were mixed for 1 h and titrated with EGCG and TMCG in separate experiments. Similar solutions containing equimolar ibuprofen and BSA were prepared and separately titrated with EGCG and TMCG to identify the binding sites of EGCG and TMCG with BSA. Titration was followed fluorometrically using an excitation wavelength of 280 nm.

[6] = UV-visible absorption spectra at different pH (ionization state); type: physicochemical; conditions: for Effect of pH on absorption spectra: UV-visible spectra, pH range 5.0–9.0 for TMCG and TMECG
Protocol: It has been shown that the protonation state of methotrexate, trimethoprim, and pyrimethamine modulates the binding of these antifolates to DHFRs from several sources. […] The absorbance maximum at 278 nm undergoes a bathochromic displacement to 328 nm, which is greatest at alkaline pH (pH > 9.0).
To determine if the spectral changes in the SYCG and SYECG solutions with pH were due to an irreversible oxidation reaction or to a reversible protonation step, a pH titration experiment was carried out. An alkaline solution of SYCG and SYECG (pH 8.5) was acidified to pH 2.5 by the addition of dilute HCl. A change in the spectra was observed, indicating a reversible protonation reaction. The spectral changes with pH observed in SYCG and SYECG can be attributed to the hydroxyl group para on the ester-bonded gallate moiety. At acidic pH, these derivatives are mainly present as protonated species, whereas at basic pH or values near neutrality, these derivatives evolve toward the deprotonated species, which are stabilized by resonance (Scheme 3). […] As described, an important factor that decreases catechin bioavailability might be their inability to easily cross cellular membranes by passive diffusion. The presence of several hydroxyl groups in these molecules gives them a high hydrophilic character, which increases the difficulty of passing across lipid membranes.
Ultraviolet-visible absorption spectra of catechins at different pHs were recorded on a UV-Vis Perkin-Elmer Lambda-2 spectrophotometer with a spectral bandwidth of 1 nm at a scan speed of 60 nm s^−1. The experiments were performed in the same buffer as described for DHFR binding studies, and the ionic strength remained constant at an optimum value of 0.15 over the pH range that was used. The pH of the reaction was measured before and after the experiment.

[7] = Table 2, restates Table 1, read-out: KD, order of binding strengths to rHDHFR depending on D-ring substitution
[8] = pH 7.5, 25 °C, fluorescence titration, read-out: Dissociation constant KD of free rHDHFR
[9] = determined as for BSA binding studies, read-out: Binding affinity to HSA (KA) (converted)

Row | Compound | IC50 ([1]; Homo sapiens, SK-MEL-28, 144 h) [µM] | melting point [°C] | Kd [2, 7] [nM] | Kd [2, 8] [nM] | Effect of pH on absorption spectra [6] | also measured
1 | COc1cc(C(=O)O[C@H]2Cc3c(OC(C)=O)cc(OC(C)=O)cc3O[C@@H]2c2ccc(OC(C)=O)c(OC(C)=O)c2)cc(OC)c1OC(C)=O [ASYCG, 5,7,3’,4’,4’’-penta-O-acetyl-3-O-(3,5-dimethoxybenzoyl)-catechin] | 37.4 ± 4 | 88 to 93 | – | – | – | –
2 | O=C(O[C@H]1Cc2c(O)cc(O)cc2O[C@@H]1c1ccc(O)c(O)c1)c1cc(O)c(O)c(O)c1 [CG, catechin-3-gallate, reference compound] | 82.2 ± 8 | – | 560 | 560 ± 70 | – | –
3 | Oc1cc(O)c2c(c1)O[C@H](c1ccc(O)c(O)c1)[C@H](O)C2 [EC, epicatechin] | – | – | – | – | – | Kd [3, 9]: 312 µM
4 | O=C(O[C@@H]1Cc2c(O)cc(O)cc2O[C@@H]1c1cc(O)c(O)c(O)c1)c1cc(O)c(O)c(O)c1 [EGCG, epigallocatechin-3-gallate, reference compound] | – | – | – | – | – | Kd [3]: 3.85 µM; Kd [4]: 64.9 nM; Number of binding sites n ([4]; catechin-BSA complex, double logarithmic plot): approximately 1; Kd ([5]; site marker: Blank): 64.9 nM; Kd ([5]; site marker: Ibuprofen): 82 nM; Kd ([5]; site marker: Warfarin): 7690 nM; Site selective binding to BSA ([5]; competition with warfarin (site-I) and ibuprofen (site-II)): higher specificity for site-I
5 | COc1cc(C(=O)O[C@H]2Cc3c(O)cc(O)cc3O[C@@H]2c2ccc(O)c(O)c2)cc(OC)c1OC(C)=O [MASYCG, 3-O-(4-acetoxy-3,5-dimethoxybenzoyl)-catechin] | 60.9 ± 6 | 118 to 122 | – | – | – | –

More lines, main results first:

Row | IC50 ([1]; Homo sapiens, SK-MEL-28, 144 h) [µM] | melting point [°C] | Kd [2, 7] [nM] | Kd [2, 8] [nM] | Effect of pH on absorption spectra [6] | Compound | also measured
6 | > 100 | – | 810 | 810 ± 90 | – | O=C(O[C@@H]1Cc2c(O)cc(O)cc2O[C@@H]1c1ccc(O)c(O)c1)c1cc(O)c(O)c(O)c1 [ECG, epicatechin-3-gallate, reference compound] | –
7 | 126 ± 10 | 110 to 114 | 720 | 720 ± 100 | strongly affected by the pH | COc1cc(C(=O)OC2Cc3c(O)cc(O)cc3OC2c2ccc(O)c(O)c2)cc(OC)c1O (centres unmarked) [SYCG, 3-O-(4-hydroxy-3,5-dimethoxybenzoyl)-catechin] | Ionization state at physiologic pH [6]: partially in their ionic form
8 | – | 120 to 123 | 770 | 770 ± 70 | strongly affected by the pH | COc1cc(C(=O)OC2Cc3c(O)cc(O)cc3OC2c2ccc(O)c(O)c2)cc(OC)c1O (centres unmarked) [SYECG, 3-O-(4-hydroxy-3,5-dimethoxybenzoyl)-epicatechin] | IC50 [1]: 199 ± 12 µM; Ionization state at physiologic pH [6]: partially in their ionic form
9 | 2.5 ± 0.6 | – | 2100 | 2100 ± 200 | no significant changes | COc1cc(C(=O)O[C@@H]2Cc3c(O)cc(O)cc3O[C@@H]2c2ccc(O)c(O)c2)cc(OC)c1OC [TMECG] | Kd [3, 9]: 23.8 µM
